Entries after “also recorded” stand apart in the source; their conditions may differ.
Tests used:
[1] = system: CD (Sprague Dawley) rats; assay: Rat telemetry: heart rate, blood pressure, body temperature, activity after cumulative SC dosing; assay type: in vivo
Excerpt: (§1) Methods. A total of 42 adult male CD® (Sprague Dawley) rats (Charles River Laboratories) were surgically implanted with DSI radiotelemetry devices by personnel at Charles River Laboratories Raleigh, NC, per their test site SOPs. Telemetry devices supported continuous recording of temperature, activity, blood pressure and heart rate. Telemeterized rats were shipped to the Charles River Laboratories testing facility (Mattawan, MI) and acclimated to the environment for at least 1 week prior to experimentation. Animals were pair-housed in solid bottom cages with nonaromatic bedding. On the dosing day, animals were singly housed and then returned to the paired cohort following the dosing/telemetry recording phase. Diet (Lab Diet® Certified Rodent Diet #5CR4) and tap water via an automatic water system were available ad libitum, except during designated procedures. Temperature and humidity were maintained according to the Testing Facility SOP. Animals were randomized into treatment groups using a standard, by weight, measured value randomization procedure. Body weight was determined for each rat prior to dosing.
(§2) As illustrated in the Table, a total of 36 rats were included in the study. The vehicle and 2 test article doses were administered in a volume of 1 mL/kg to each of 3 groups of n=12 telemeterized rats via subcutaneous injection four times on a given day, followed by neurobehavioral evaluations. This series was repeated 3 times on study. Each group received all 3 dose levels of the applicable test or control article in ascending order with a 1-week washout between dose levels.
(§3) Mortality/cage side clinical observations were conducted for all study animals at least twice daily beginning upon receipt through termination, except on days of receipt and termination where frequency was at least once daily. Detailed clinical observations were conducted for all study animals prior to each of the four cumulative doses in a series. Individual body weights were conducted for all study animals at transfer, prior to randomization, on the day of dosing on each of the 3 cycles of dosing. The body weights recorded at transfer and prior to randomization are not reported but are maintained in the study file. Veterinary care was available throughout the course of the study, and animals were examined by the veterinary staff as needed based on clinical signs or other changes. All animals were provided with HydroGel the night prior to their respective dosing days to potentially mitigate any animal welfare issues related to fluid loss/dehydration.
Telemetry monitoring was conducted for all animals 2 hours prior to dosing and through to 7.5 hours following the last (4th) cumulative dose of each series, which included continuous data collection of body temperature, activity, heart rate, and blood pressure (systolic, diastolic, and mean arterial) using telemetry.
The total period of time over which the statistical analyses were conducted encompassed the entire dosing period for all animals (i.e., Dose 1 through 7.5 hour post-4th dose) in an effort to draw conclusions regarding the effects of the dosing procedure and cumulative changes by allowing comparisons between the cumulative dosing periods. The following statistical analyses were performed for each analysis segment.
All time-series data comparisons conducted via statistical analysis are relative to the control treatment and are based on the LSMean values. Additionally, the change values used for the statistical analysis were calculated using a baseline of the 2 hours of pre-dose data, prior to the first compound injection of the series. The raw change values were analyzed.

[2] = system: CD (Sprague Dawley) rats; assay: Rat functional observation battery (FOB) neurobehavioral evaluation after cumulative SC dosing; assay type: in vivo
Description: The observations were assessed through a rat functional observation battery (FOB) and continuous physiological measurements on the day of cumulative dosing, which are provided in further detail below.
as §1, §2, §3
Neurobehavioral evaluations (blinded) were conducted for all study animals 1 hour following the last (4th) cumulative dose of the series. The neurobehavioral parameters evaluated included: activity measurements (arousal/alertness, posture/body carriage, stereotypy, rearing, and appearance), autonomic measurements (exophthalmus, lacrimation, erected fur, pupil response, salivation, defecation, and palpebral closure/ptosis), excitability measurements (vocalizations, startle response, ease of removal, handling reactivity, and convulsions), neuromuscular measurements (gait/mobility, grip strength/response, air righting reflex, tremor, and body tone), physiological measurements (respiration and body temperature), and sensorimotor measurements (touch response/tactile reflex and thermal response).

[3] = racemic MDMA 20 mg/kg/day, S-MDMA 10 mg/kg/day, approximate
[4] = telemetry, cumulative SC dosing, dose groups stated in the value
[5] = 1 h after last of 4 hourly SC injections, R-MDMA and racemic MDMA 10, 20 mg/kg/day, S-MDMA 5, 10 mg/kg/day
[6] = 1 h after last of 4 hourly SC injections, racemic MDMA 10, 20 mg/kg/day, S-MDMA 5, 10 mg/kg/day
[7] = FOB, cumulative SC dosing, dose groups stated in the value

With `CNC(C)Cc1ccc2c(c1)OCO2` (single isomer, unassigned) [S-MDMA, S(+)-MDMA] the “hemodynamic parameters (systolic/diastolic/mean arterial blood pressures and heart rate)” value ([1]; 4 hourly SC injections, cumulative doses 5, 10, or 20 mg/kg/day) was “dose-dependent blood pressure-increasing effects”, the “period of significantly decreased body temperature compared to R-MDMA (10 mg/kg/day)” value ([1]; S-MDMA 10 mg/kg/day, approximate) was 0.5-1 hours post initiation of dosing and the body temperature response ([1]; S-MDMA 5, 10 mg/kg/day, racemic-MDMA 10, 20 mg/kg/day, 4 hourly SC injections) was “hyperthermic response”. For the same molecule, the “activity (implanted telemetry devices)” value ([1]; all cumulative doses (5, 10, or 20 mg/kg/day)) was “Activity-increasing effects”, the “blood pressure increase [mean arterial pressure]” value ([1]; maximum change, R-MDMA and racemic MDMA 10, 20 mg/kg/day, S-MDMA 5, 10 mg/kg/day, 4 hourly SC injections) was “up to +36%” and the peak body temperatures ([1]; overall mean magnitude of change, 4 hourly SC injections) was 39.5 °C. The “period of significantly increased body temperature compared to R-MDMA (10 mg/kg/day)” value [1, 3] was 3.5-4 hours post initiation of dosing, the “period of significantly increased heart rate compared to R-MDMA (10 mg/kg/day)” value [1, 3] was 5-10 hours post initiation of dosing and the “period of significantly increased mean arterial blood pressure compared to R-MDMA (10 mg/kg/day)” value [1, 3] was 1.5-3 hours post initiation of dosing. The “period of significantly increased systolic blood pressure compared to R-MDMA (10 mg/kg/day)” value [1, 3] was 1.5-3 hours post initiation of dosing, the “Rank Order Blood Pressures (Systolic, Diastolic, and Mean Arterial) Effects” value [1, 4] was “R-MDMA (10 mg/kg/day) < S-MDMA (5 mg/kg/day) < Rac.-MDMA (10 mg/kg/day); also recorded: R-MDMA (20 mg/kg/day) < S-MDMA (10 mg/kg/day) < Rac-MDMA (20 mg/kg/day); also recorded: S-MDMA (0 mg/kg/day) < S-MDMA (5 mg/kg/day) < S-MDMA (10 mg/kg/day); also recorded: R-MDMA (10 mg/kg/day) < S-MDMA (10 mg/kg/day) < Rac-MDMA (20 mg/kg/day)” and the “Rank Order Body Temperature Effects” value [1, 4] was “R-MDMA (10 mg/kg/day) < S-MDMA (5 mg/kg/day) < Rac.-MDMA (10 mg/kg/day); also recorded: R-MDMA (20 mg/kg/day) < S-MDMA (10 mg/kg/day) < Rac-MDMA (20 mg/kg/day); also recorded: S-MDMA (0 mg/kg/day) < S-MDMA (5 mg/kg/day) < S-MDMA (10 mg/kg/day); also recorded: R-MDMA (10 mg/kg/day) < S-MDMA (10 mg/kg/day) < Rac-MDMA (20 mg/kg/day)”. For the same molecule, the “Rank Order General Activity Effects” value [1, 4] was “R-MDMA (10 mg/kg/day) < S-MDMA (5 mg/kg/day) < Rac.-MDMA (10 mg/kg/day); also recorded: R-MDMA (20 mg/kg/day) < S-MDMA (10 mg/kg/day) < Rac-MDMA (20 mg/kg/day); also recorded: S-MDMA (0 mg/kg/day) < S-MDMA (5 mg/kg/day) < S-MDMA (10 mg/kg/day); also recorded: R-MDMA (10 mg/kg/day) < S-MDMA (10 mg/kg/day) < Rac-MDMA (20 mg/kg/day)”, the “Rank Order Heart Rate Measurement Effects” value [1, 4] was “R-MDMA (10 mg/kg/day) < S-MDMA (5 mg/kg/day) < Rac.-MDMA (10 mg/kg/day); also recorded: R-MDMA (20 mg/kg/day) < S-MDMA (10 mg/kg/day) < Rac-MDMA (20 mg/kg/day); also recorded: S-MDMA (0 mg/kg/day) < S-MDMA (5 mg/kg/day) < S-MDMA (10 mg/kg/day); also recorded: R-MDMA (10 mg/kg/day) < S-MDMA (10 mg/kg/day) < Rac-MDMA (20 mg/kg/day)” and the arousal/alertness and rearing [2, 5] was “general increase in overall levels of arousal/alertness and rearing”. The “ease of removal from the home cage and handling reactivity (excitability)” value [2, 5] was “Dose-dependent increased difficulty in removal from the home cage and increased handling reactivity”, the forelimb grip strength [2, 5] was “dose-dependent statistically significant decreases in forelimb grip strength” and the “salivation and erected fur (autonomic)” value [2, 5] was “Dose-dependent increased salivation and erected fur”. For the same molecule, the unkempt appearance [2, 5] was “increased incidence of unkempt appearance in a dose-dependent manner”, the “stereotypies (mouth movements/weaving, circling/retropulsion, sniffing)” value ([2]; 1 h after last of 4 hourly SC injections, highest doses: S-MDMA 10, racemic-MDMA 20 mg/kg/day, R-MDMA 10, 20 mg/kg/day) was “observed in animals treated with S-MDMA and racemic-MDMA only at the highest tested doses; also recorded: only one S-MDMA-treated animal was reported with stereotypical behaviors” and the general gait/mobility changes [2, 6] was “General gait/mobility changes were only observed”. The respiration [2, 6] was “Rapid respiration was noted”, the “Rank Order Activity Measurement Effects” value [2, 7] was “S-MDMA (5 mg/kg/day) < R-MDMA (10 mg/kg/day) < Rac.-MDMA (10 mg/kg/day); also recorded: Rac.-MDMA (20 mg/kg/day) < S-MDMA (10 mg/kg/day) < R-MDMA (20 mg/kg/day); also recorded: S-MDMA (0 mg/kg/day) < S-MDMA (5 mg/kg/day) < S-MDMA (10 mg/kg/day); also recorded: Rac.-MDMA (20 mg/kg/day) < S-MDMA (10 mg/kg/day) < R-MDMA (10 mg/kg/day)” and the “Rank Order Autonomic Measurement Effects” value [2, 7] was “R-MDMA (10 mg/kg/day) < S-MDMA (5 mg/kg/day) < Rac.-MDMA (10 mg/kg/day); also recorded: R-MDMA (20 mg/kg/day) < S-MDMA (10 mg/kg/day) < Rac-MDMA (20 mg/kg/day); also recorded: S-MDMA (0 mg/kg/day) < S-MDMA (5 mg/kg/day) < S-MDMA (10 mg/kg/day); also recorded: R-MDMA (10 mg/kg/day) < S-MDMA (10 mg/kg/day) = Rac-MDMA (20 mg/kg/day)”. For the same molecule, the “Rank Order Excitability Measurement Effects” value [2, 7] was “R-MDMA (10 mg/kg/day) < S-MDMA (5 mg/kg/day) < Rac.-MDMA (10 mg/kg/day); also recorded: R-MDMA (20 mg/kg/day) = S-MDMA (10 mg/kg/day) < Rac-MDMA (20 mg/kg/day); also recorded: S-MDMA (0 mg/kg/day) < S-MDMA (5 mg/kg/day) < S-MDMA (10 mg/kg/day); also recorded: R-MDMA (10 mg/kg/day) < S-MDMA (10 mg/kg/day) < Rac-MDMA (20 mg/kg/day)”, the “Rank Order Neuromuscular Measurement Effects” value [2, 7] was “R-MDMA (10 mg/kg/day) < S-MDMA (5 mg/kg/day) < Rac.-MDMA (10 mg/kg/day); also recorded: R-MDMA (20 mg/kg/day) = S-MDMA (10 mg/kg/day) < Rac-MDMA (20 mg/kg/day); also recorded: S-MDMA (0 mg/kg/day) < S-MDMA (5 mg/kg/day) = S-MDMA (10 mg/kg/day); also recorded: R-MDMA (10 mg/kg/day) < S-MDMA (10 mg/kg/day) < Rac-MDMA (20 mg/kg/day)” and the “Rank Order Physiological Measurement Effects” value [2, 7] was “R-MDMA (10 mg/kg/day) < S-MDMA (5 mg/kg/day) < Rac.-MDMA (10 mg/kg/day); also recorded: R-MDMA (20 mg/kg/day) < S-MDMA (10 mg/kg/day) = Rac-MDMA (20 mg/kg/day); also recorded: S-MDMA (0 mg/kg/day) < S-MDMA (5 mg/kg/day) < S-MDMA (10 mg/kg/day); also recorded: R-MDMA (10 mg/kg/day) < S-MDMA (10 mg/kg/day) = Rac-MDMA (20 mg/kg/day)”. For the same molecule, the “Rank Order Sensorimotor Measurement Effects” value [2, 7] was “S-MDMA (5 mg/kg/day) < Rac-MDMA (10 mg/kg/day) < R-MDMA (10 mg/kg/day); also recorded: S-MDMA (10 mg/kg/day) < Rac-MDMA (20 mg/kg/day) < R-MDMA (20 mg/kg/day); also recorded: S-MDMA (0 mg/kg/day) < S-MDMA (10 mg/kg/day) < S-MDMA (5 mg/kg/day)” and the thermal response times ([2]; at levels at least two-fold that of vehicle-treated groups, 1 h after last of 4 hourly SC injections) was “Statistically significant increases in thermal response times”.

Reference: patent US20240082212A1, “USE OF MDMA FOR TREATMENT OF STRESS-RELATED DISORDERS” (priority 2022, published 2024)
